# Test results: patent EP2033955A1, “Urea derivatives of 1H-pyrazol-4-carboxylic acid with neutrophil chemotaxis inhibiting activity” (Universita' Degli Studi Di Genova, priority 2007, dated 2009)
# How the values were obtained:
# [1] = tested on: human peripheral blood neutrophils; experiment: Inhibition of fMLP-induced neutrophil chemotaxis (48-well microchemotaxis chamber, leading-front method); assay type: cell-based; details: for IC50: read-out: Inhibition of the migration of neutrophils induced by fMLP CI50; for Percentage in brackets after the fMLP CI50 bound: meaning of the percentage not explained
# Method: (§1) The inhibitory activity of the compounds according to the present invention towards fMLP- or CXCL8-induced chemotaxiswas evaluated following methods described in the literature (Giordano, C. et al., Bioorg. Med. Chem. 2006, 14, 2642 and documents cited in such article).
# (§2) Cells were obtained from blood of healthy subjects and human peripheral blood neutrophils were purified by using the standard techniques of dextran sedimentation (Pharmacia, Uppsala, Sweden), centrifugation on Ficoll-Paque (Pharmacia) and hypotonic lysis of contaminating red blood cells. The cells were washed twice and resuspended in Krebs-Ringer (KRPG) phosphate, pH 7.4, at a final concentration of 50 x 10^6 cells/ml and kept at room temperature until used. The neutrophils were 98-100% viable, as determined using the Trypan blue exclusion test.
# (§3) The f-MLP-OMe and the compounds to be tested (10-^2M) were dissolved in dimethylsulfoxide (DMSO) while CXCL8 (10^-5 M) was dissolved in water. All solutions were diluted in KRPG before use to obtain the final concentration required by the experimental protocol.
# (§4) A random locomotion test was carried out with a 48-well microchemotaxis chamber (Bio Probe, Milan) and migration into the filter was evaluated by the leading-front method (Gennari, C. et al, Eur. J. Org. Chem. (1998), p. 945) by estimating the distance in micrometres which the leading edge of the cell migrated. The actual control random movement is 35 ± 3 µm SE of six separate experiments carried out in duplicate.
# (§5) The directional movement or chemotaxis was measured with the same chamber used for the random locomotion, adding fMLP-OMe 10^-9 M or CXCL8 10^-8 M in the lower compartment.
# (§6) Each compound to be tested was added in the upper compartment of the chemotaxis chamber, diluted at concentrations varying from 10^-15 to 10^-5 M with KRPG containing 1 mg/ml of bovine serum albumin (BSA; Orha Behringwerke, Germany).
# (§7) The neutrophils were pre-incubated with the compounds to be tested ten minutes before the functional test. The data was expressed in terms of chemotactic index (C.I.), which is the ratio (migration towards test attractant - migration towards the buffer)/migration towards the buffer.
# (§8) The antagonism was measured as C.I. in the absence (100%) and in the presence of the compound to be tested at different concentrations. CI50 values were calculated from the sigmoid dose-response curve by a nonlinear regression analysis (Graph Pad Prism, San Diego, USA).
# (§9) The values are means of six separate experiments carried out twice. The standard errors are in the range of 0.02-0.09 C.I.
# [2] = tested on: human peripheral blood neutrophils; experiment: Inhibition of IL8 (CXCL8)-induced neutrophil chemotaxis (48-well microchemotaxis chamber, leading-front method); assay type: cell-based; details: CXCL8 10^-8 M in lower compartment, neutrophils pre-incubated ten minutes with compound, means of six experiments, read-out: Inhibition of the migration of neutrophils induced by IL8 CI50
# Method: as §1, §2, §3, §4, §5, §6, §7, §8, §9
# [3] = Homo sapiens, Neutrophil, fMLP-OMe 10^-9 M in lower compartment, neutrophils pre-incubated ten minutes with compound, means of six experiments
# [4] = Homo sapiens, Neutrophil, fMLP-OMe 10^-9 M, unit µM, highest tested concentration 10^-5 M
# [5] = fMLP-OMe 10^-9 M in lower compartment, neutrophils pre-incubated ten minutes with compound, means of six experiments
SMILES,"IC50 [1, 3] [µM]","IC50 ([2]; Homo sapiens, Neutrophil) [nM]",other results
"CCOC(=O)c1cnn(CC(O)c2ccccc2)c1NC(=O)Nc1cccc2ccccc12 (centres unmarked) [Ia, 1-(2-hydroxy-2-phenylethyl)-5-[3-(1-naphthyl)ureido]-1H-pyrazole-4-carboxylic acid ethyl ester]",0.0078 ± 0.00052,0.0076 ± 0.001,–
"CCOC(=O)c1cnn(CC(C)O)c1NC(=O)NC(C)C (centres unmarked) [Ib, 1-(2-hydroxypropyl)-5-(3-isopropylureido)-1H-pyrazole-4-carboxylic acid ethyl ester]",0.09 ± 0.0093,–,–
"CCOC(=O)c1cnn(CC(C)O)c1NC(=O)NCc1ccccc1 (centres unmarked) [Ic, 1-(2-hydroxypropyl)-5-(3-benzylureido)-1H-pyrazole-4-carboxylic acid ethyl ester]",0.015 ± 0.0011,–,–
"CCOC(=O)c1cnn(CC(C)O)c1NC(=O)NN1CCN(Cc2ccccc2)CC1 (centres unmarked) [Id, 1-(2-hydroxypropyl)-5-[3-(4-benzyl)piperazinylureido]-1H-pyrazole-4-carboxylic acid ethyl ester]",–,–,"Percentage in brackets after the fMLP CI50 bound ([1]; fMLP-OMe 10^-9 M): 63%; IC50 ([1]; fMLP-OMe 10^-9 M, unit µM, highest tested concentration 10^-5 M): > 10 µM"
"CCOC(=O)c1cnn(CC(C)O)c1NC(=O)Nc1ccccc1F (centres unmarked) [Ie, 1-(2-hydroxypropyl)-5-[3-(2-fluorophenyl)ureido]-1H-pyrazole-4-carboxylic acid ethyl ester]",0.1 ± 0.0103,–,–
"CCOC(=O)c1cnn(CC(C)O)c1NC(=O)Nc1cccc(F)c1 (centres unmarked) [If, 1-(2-hydroxypropyl)-5-[3-(3-fluorophenyl)ureido]-1H-pyrazole-4-carboxylic acid ethyl ester]",–,–,"IC50 [1, 4]: > 10 µM; Percentage in brackets after the fMLP CI50 bound ([1]; fMLP-OMe 10^-9 M): 60%"
"CCOC(=O)c1cnn(CC(C)O)c1NC(=O)Nc1ccc(F)cc1 (centres unmarked) [Ig, 1-(2-hydroxypropyl)-5-[3-(4-fluorophenyl)ureido]-1H-pyrazole-4-carboxylic acid ethyl ester]",–,0.2 ± 0.06,"IC50 [1, 4]: > 10 µM; Percentage in brackets after the fMLP CI50 bound ([1]; fMLP-OMe 10^-9 M): 55%"
"CCOC(=O)c1cnn(CC(C)O)c1NC(=O)Nc1cccc2ccccc12 (centres unmarked) [Ih, 1-(2-hydroxypropyl)-5-[3-(1-naphthyl)ureido]-1H-pyrazole-4-carboxylic acid ethyl ester]",0.0098 ± 0.0009,–,–
"CCOC(=O)c1cnn(CC(O)CC)c1NC(=O)NC(C)C (centres unmarked) [Ii, 1-(2hydroxybutyl)-5-(3-isopropylureido)-1H-pyrazole-4-carboxylic acid ethyl ester]",–,0.0042 ± 0.0007,"IC50 [1, 4]: > 10 µM; Percentage in brackets after the fMLP CI50 bound ([1]; fMLP-OMe 10^-9 M): 52%"
"CCOC(=O)c1cnn(CC(O)CC)c1NC(=O)NCc1ccccc1 (centres unmarked) [Ij, 1-(2-hydroxybutyl)-5-(3-benzylureido)-1H-pyrazole-4-carboxylic acid ethyl ester]",–,0.0074 ± 0.0002,"IC50 [1, 4]: > 10 µM; Percentage in brackets after the fMLP CI50 bound ([1]; fMLP-OMe 10^-9 M): 54%"
"CCOC(=O)c1cnn(CC(O)CC)c1NC(=O)NN1CCN(Cc2ccccc2)CC1 (centres unmarked) [Ik, 1-(2-hydroxybutyl)-5-[3-(4-benzyl)piperazinylureido)-1H-pyrazole-4-carboxylic acid ethyl ester]",–,–,"IC50 [1, 5]: 2 ± 0.2 µM"
"CCOC(=O)c1cnn(CC(O)CC)c1NC(=O)Nc1ccccc1F (centres unmarked) [Il, 1-(2-hydroxybutyl)-5-[3-(2-fluorophenyl)ureido]-1H-pyrazole-4-carboxylic acid ethyl ester]",0.12 ± 0.012,0.0016 ± 0.0002,–
"CCOC(=O)c1cnn(CC(O)CC)c1NC(=O)Nc1cccc(F)c1 (centres unmarked) [Im, 1-(2-hydroxybutyl)-5-[3-(3-fluorophenyl)ureido]-1H-pyrazole-4-carboxylic acid ethyl ester]",0.00019 ± 1e-05,0.36 ± 0.06,–
"CCOC(=O)c1cnn(CC(O)CC)c1NC(=O)Nc1ccc(F)cc1 (centres unmarked) [In, 1-(2-hydroxybutyl)-5-[3-(4-fluorophenyl)ureido]-1H-pyrazole-4-carboxylic acid ethyl ester]",0.0032 ± 0.0004,1.9 ± 0.13,–
"CCOC(=O)c1cnn(CC(O)CC)c1NC(=O)Nc1cccc2ccccc12 (centres unmarked) [Io, 1-(2-hydroxybutyl)-5-[3-(1-naphthyl)ureido]-1H-pyrazole-4-carboxylic acid ethyl ester]",0.012 ± 0.0012,9.6 ± 1,–
"CCCC(O)Cn1ncc(C(=O)OCC)c1NC(=O)NC(C)C (centres unmarked) [Ip, 1-(2-hydroxypentyl)-5-(3-isopropylureido)-1H-pyrazole-4-carboxylic acid ethyl ester]",0.02 ± 0.0022,1 ± 0.05,–
"CCCC(O)Cn1ncc(C(=O)OCC)c1NC(=O)NCc1ccccc1 (centres unmarked) [Iq, 1-(2-hydroxypentyl)-5-(3-benzylureido)-1H-pyrazole-4-carboxylic acid ethyl ester]",0.00043 ± 5e-05,0.0032 ± 0.0001,–
"CCCC(O)Cn1ncc(C(=O)OCC)c1NC(=O)NN1CCN(Cc2ccccc2)CC1 (centres unmarked) [Ir, 1-(2-hydroxypentyl)-5-[3-(4-benzyl)piperazinylureido)-1H-pyrazole-4-carboxylic acid ethyl ester]",–,–,"IC50 [1, 5]: 0.0011 ± 0.0001 µM; IC50 [2]: 0.09 ± 0.004 nM"
COC(=O)[C@H](Cc1ccccc1)NC(=O)[C@H](CC(C)C)NC(=O)[C@H](CCSC)NC=O [fMLP-OMe],–,–,chemotactic index (C.I.) ([1]; chemoattractant alone at 10^-9): 1.2
